# Where “and” joins values, the source holds several entries; their conditions need not be identical. Identical values can stand only once. Like-named read-outs stand apart in the source and are kept apart here.
# Molecular target: human ATP synthase (Homo sapiens, UniProt P00846+P05496)
# Test: biochemical
# Format: biochemical
# [1] = BDQ 0.65 uM, […], frozen human mito, BDQ in DMSO
# [2] = BDQ 0.65 uM, cyanide sensitive, 60 min, frozen human mito, BDQ in DMSO
# [3] = BDQ 1 uM, […], frozen human mito, BDQ in DMSO
# [4] = BDQ 1 uM, cyanide sensitive, human
# [5] = BDQ 2 uM, […], frozen human mito, BDQ in DMSO
# [6] = BDQ 5 uM, […], frozen human mito, BDQ in DMSO
# [7] = BDQ 5 uM, cyanide sensitive, human
# [8] = BDQ 10 uM, […], frozen human mito, BDQ in DMSO
# [9] = BDQ 10 uM, cyanide sensitive, human
# [10] = Human Mito, 1st exp (12-14-18), Bedaquiline 0.05 μM, 60 min
# [11] = Human Mito, 2nd exp (12-17-18), Bedaquiline 0.05 μM, 60 min
compound,measurement,setting,value
"COc1nc2ccc(Br)cc2cc1[C@@H](c1ccccc1)[C@@](O)(CCN(C)C)c1cccc2ccccc12 [BDQ, Bedaquiline]",cyanide sensitive % inhibition,"BDQ 0.5 uM, cyanide sensitive, human",66.6% and 70.0% and 42.0% and 48.8% and 35.1%
same,% activity,[1],30.2506%
same,% inhibition,[1],69.7494%
same,"ATP produced, nmol/min/mg",[1],2.55 nmol/min/mg
same,"ATP produced, pmol/min/mg",[1],2547.17 pmol/min/mg
same,activity at 0.65 µM,"BDQ 0.65 uM, […], frozen human mito, BDQ in DMSO, read-out: % activity",30.3%
same,activity at 0.65 µM,"BDQ 0.65 uM, […], frozen human mito, BDQ in DMSO, read-out: % activity, cyanide sensitive",18.5%
same,inhibition at 0.65 µM,"BDQ 0.65 uM, […], frozen human mito, BDQ in DMSO, read-out: % inhibition",69.7%
same,inhibition at 0.65 µM,"BDQ 0.65 uM, […], frozen human mito, BDQ in DMSO, read-out: % inhibition, cyanide sensitive",81.5%
same,"cyanide sensitive ATP produced, nmol/min/mg",[2],1.33 nmol/min/mg
same,"cyanide sensitive ATP produced, pmol/min/mg",[2],1329.08 pmol/min/mg
same,cyanide sensitive % inhibition,"BDQ 0.85 uM, cyanide sensitive, human",67.5% and 100.0% and 66.9%
same,% activity,[3],17.1322%
same,"% activity, cyanide sensitive",[3],3.117%
same,% inhibition,[3],82.8678%
same,"ATP produced, nmol/min/mg",[3],1.44 nmol/min/mg
same,"ATP produced, pmol/min/mg",[3],1442.57 pmol/min/mg
same,activity at 1 µM,"BDQ 1 uM, […], frozen human mito, BDQ in DMSO, read-out: % activity",17.1%
same,inhibition at 1 µM,"BDQ 1 uM, […], frozen human mito, BDQ in DMSO, read-out: % inhibition",82.9%
same,inhibition at 1 µM,"BDQ 1 uM, […], frozen human mito, BDQ in DMSO, read-out: % inhibition, cyanide sensitive",96.9%
same,"cyanide sensitive ATP produced, pmol/min/mg","BDQ 1 uM, cyanide sensitive, 60 min, frozen human mito, BDQ in DMSO",224.48 pmol/min/mg
same,cyanide sensitive % activity,[4],-0.8% and 8.7% and -0.171%
same,cyanide sensitive % inhibition,[4],91.3% and 100.2%
same,inhibition at 1 µM,"BDQ 1 uM, cyanide sensitive, human, read-out: cyanide sensitive % inhibition",101%
same,% activity,[5],12.0221%
same,% inhibition,[5],87.9779%
same,"ATP produced, nmol/min/mg",[5],1.01 nmol/min/mg
same,"ATP produced, pmol/min/mg",[5],1012.29 pmol/min/mg
same,activity at 2 µM,"BDQ 2 uM, […], frozen human mito, BDQ in DMSO, read-out: % activity",12%
same,activity at 2 µM,"BDQ 2 uM, […], frozen human mito, BDQ in DMSO, read-out: % activity, cyanide sensitive",-2.86%
same,inhibition at 2 µM,"BDQ 2 uM, […], frozen human mito, BDQ in DMSO, read-out: % inhibition",88%
same,inhibition at 2 µM,"BDQ 2 uM, […], frozen human mito, BDQ in DMSO, read-out: % inhibition, cyanide sensitive",103%
same,"cyanide sensitive ATP produced, pmol/min/mg","BDQ 2 uM, cyanide sensitive, 60 min, frozen human mito, BDQ in DMSO",-205.80 pmol/min/mg
same,cyanide sensitive % inhibition,"BDQ 2 uM, cyanide sensitive, human",98.3% and 117.8% and 98.9% and 97.2% and 102.7%
same,% activity,[6],17.1136%
same,"% activity, cyanide sensitive",[6],3.095%
same,% inhibition,[6],82.8864%
same,"ATP produced, nmol/min/mg",[6],1.44 nmol/min/mg
same,"ATP produced, pmol/min/mg",[6],1441.00 pmol/min/mg
same,activity at 5 µM,"BDQ 5 uM, […], frozen human mito, BDQ in DMSO, read-out: % activity",17.1%
same,inhibition at 5 µM,"BDQ 5 uM, […], frozen human mito, BDQ in DMSO, read-out: % inhibition",82.9%
same,inhibition at 5 µM,"BDQ 5 uM, […], frozen human mito, BDQ in DMSO, read-out: % inhibition, cyanide sensitive",96.9%
same,"cyanide sensitive ATP produced, pmol/min/mg","BDQ 5 uM, cyanide sensitive, 60 min, frozen human mito, BDQ in DMSO",222.91 pmol/min/mg
same,cyanide sensitive % activity,[7],-7.0% and -10.1% and -4.1% and -2.6% and -5.6%
same,cyanide sensitive % inhibition,[7],107.0% and 110.1% and 102.6% and 105.6%
same,inhibition at 5 µM,"BDQ 5 uM, cyanide sensitive, human, read-out: cyanide sensitive % inhibition",104%
same,% activity,[8],14.9815%
same,"% activity, cyanide sensitive",[8],0.6024%
same,% inhibition,[8],85.0185%
same,"ATP produced, nmol/min/mg",[8],1.26 nmol/min/mg
same,"ATP produced, pmol/min/mg",[8],1261.47 pmol/min/mg
same,activity at 10 µM,"BDQ 10 uM, […], frozen human mito, BDQ in DMSO, read-out: % activity",15%
same,inhibition at 10 µM,"BDQ 10 uM, […], frozen human mito, BDQ in DMSO, read-out: % inhibition",85%
same,inhibition at 10 µM,"BDQ 10 uM, […], frozen human mito, BDQ in DMSO, read-out: % inhibition, cyanide sensitive",99.4%
same,"cyanide sensitive ATP produced, pmol/min/mg","BDQ 10 uM, cyanide sensitive, 60 min, frozen human mito, BDQ in DMSO",43.39 pmol/min/mg
same,cyanide sensitive % activity,[9],-1.4%
same,cyanide sensitive % inhibition,[9],101.4%
same,inhibition at 10 µM,"BDQ 10 uM, cyanide sensitive, human, read-out: cyanide sensitive % inhibition",102%
same,Cyanide sensitive,[10],4.658 nmol/min/mg
same,activity at 0.05 µM,[10],64.1%
same,Cyanide sensitive,"Human Mito, 1st exp (12-14-18), Bedaquiline 0.1 μM, 60 min",6.127 nmol/min/mg
same,activity at 0.1 µM,"Human Mito, 1st exp (12-14-18), Bedaquiline 0.1 μM, 60 min, read-out: % activity",84.3%
same,Cyanide sensitive,"Human Mito, 1st exp (12-14-18), Bedaquiline 0.2 μM, 60 min",4.027 nmol/min/mg
same,activity at 0.2 µM,"Human Mito, 1st exp (12-14-18), Bedaquiline 0.2 μM, 60 min, read-out: % activity",55.4%
same,Cyanide sensitive,"Human Mito, 1st exp (12-14-18), Bedaquiline 0.5 μM, 60 min",2.18 nmol/min/mg
same,activity at 0.5 µM,"Human Mito, 1st exp (12-14-18), Bedaquiline 0.5 μM, 60 min, read-out: % activity",30%
same,Cyanide sensitive,"Human Mito, 1st exp (12-14-18), Bedaquiline 0.65 μM, 60 min",-0.9359 nmol/min/mg
same,activity at 0.65 µM,"Human Mito, 1st exp (12-14-18), Bedaquiline 0.65 μM, 60 min, read-out: % activity",-12.9%
same,Cyanide sensitive,"Human Mito, 1st exp (12-14-18), Bedaquiline 0.85 μM, 60 min",-0.002656 nmol/min/mg
same,activity at 0.85 µM,"Human Mito, 1st exp (12-14-18), Bedaquiline 0.85 μM, 60 min, read-out: % activity",-0.0365%
same,Cyanide sensitive,"Human Mito, 1st exp (12-14-18), Bedaquiline 2 μM, 60 min",-1.2927 nmol/min/mg
same,activity at 2 µM,"Human Mito, 1st exp (12-14-18), Bedaquiline 2 μM, 60 min, read-out: % activity",-17.8%
same,Cyanide sensitive,"Human Mito, 1st exp (12-14-18), Bedaquiline 5 μM, 60 min",-0.5097 nmol/min/mg
same,activity at 5 µM,"Human Mito, 1st exp (12-14-18), Bedaquiline 5 μM, 60 min, read-out: % activity",-7.01%
same,activity at 0.1 µM,"Human Mito, 1st exp (18_12_14), BDQ 0.1 uM, read-out: Cyanide sensitive % activity",73.2%
same,activity at 0.2 µM,"Human Mito, 1st exp (18_12_14), BDQ 0.2 uM, read-out: Cyanide sensitive % activity",57.7%
same,activity at 0.5 µM,"Human Mito, 1st exp (18_12_14), BDQ 0.5 uM, read-out: Cyanide sensitive % activity",44%
same,activity at 0.85 µM,"Human Mito, 1st exp (18_12_14), BDQ 0.85 uM, read-out: Cyanide sensitive % activity",16.6%
same,activity at 2 µM,"Human Mito, 1st exp (18_12_14), BDQ 2 uM, read-out: Cyanide sensitive % activity",-8.33%
same,Cyanide sensitive,[11],3.788 nmol/min/mg
same,activity at 0.05 µM,[11],43.8%
same,Cyanide sensitive,"Human Mito, 2nd exp (12-17-18), Bedaquiline 0.1 μM, 60 min",5.369 nmol/min/mg
same,activity at 0.1 µM,"Human Mito, 2nd exp (12-17-18), Bedaquiline 0.1 μM, 60 min, read-out: % activity",62%
